Experiments:
[1] = tested on: GSH level in the liver and in the kidney; experiment: GSH level in liver and kidney of starved mice, time course (Example 6); assay type: in vivo; conditions: mice starved 24 hours, 10 mmol/kg i.p., 2 to 3 hours after the administration
Protocol: The test compound was dissolved in sterile water to give a test solution. Groups of 3 mice, each having a body weight of 20 to 25 g, were starved over a period of 24 hours and treated intraperitoneally with a dose of 10 mmol/kg of the test compound. Mice were dissected by every two hours, and the liver and kidney were taken out. GSH analysis was performed on each of the organs.

[2] = tested on: mice treated with lethal dose of acetaminophen; experiment: Survival of starved mice after lethal dose of acetaminophen (Example 8); assay type: in vivo; conditions: acetaminophen 5 mmol/kg i.p., test compound 10 mmol/kg one hour later, 15 mice
Excerpt: Starved mice were intraperitoneally treated with 5 mmol/kg (lethal dose) of acetaminophen and, one hour later, with 10 mmol/kg of the test compound.

[3] = tested on: glutathione levels of the liver and kidney; experiment: Liver and kidney glutathione levels of fasted mice given glutathione ester or glutathione (Example 1, Comparative Example 1); assay type: in vivo
Protocol: A solution of the glutathione ester was prepared in aseptic water. […] At intervals of 2 hours, as shown in FIGS. 1(a) and (b), the animals were decapitated and the liver and kidney tissues were removed and analyzed for glutathione. Using groups of 3 mice each, values are given as means±S.D.

[4] = tested on: mice given a lethal dose of acetaminophen; conditions: acetaminophen 5 mmole per kilogram, ester 10 mmole per kilogram 1 hour later, 15 mice
[5] = tested on: glutathione levels of the liver and kidney; experiment: Liver and kidney glutathione levels of mice pretreated with buthionine sulfoximine (Example 2); assay type: in vivo; conditions: 2 mmol/kg buthionine sulfoximine
Excerpt: Controls were again given saline, with tissue levels of GSH being determined at the indicated intervals. Values are means±S.D., using groups of 3 mice each.

[6] = mice fasted 24 hours, intraperitoneal 10 millimoles per kilogram, 2 hours after administration, vs 0.15M NaCl controls

| Structure (SMILES) | GSH level in the kidney [1] | GSH level in the liver [1] | survival after 7 days [2] | also measured |
| --- | --- | --- | --- | --- |
| CC(C)OC(=O)CNC(=O)[C@H](CS)NC(=O)CC[C@H](N)C(=O)O [GSH monoisopropyl ester, Isopropyl γ-L-glutamyl-L-cysteinylglycinate] | substantial elevation | substantial elevation | survived and were recovered clearly after 7 days |  |
| COC(=O)CNC(=O)[C@H](CS)NC(=O)CC[C@H](N)C(=O)O [glutathione monomethyl ester] |  |  |  | glutathione level of the kidney [3, 6]: increased substantially; glutathione level of the liver [3, 6]: increased substantially; fatalities / survival at 7 days [4]: no fatalities were observed |
| CCOC(=O)CNC(=O)[C@H](CS)NC(=O)CC[C@H](N)C(=O)O [glutathione monoethyl ester, L-γ-Glutamyl-L Cysteinyl Glycyl Ethyl Ester] |  |  |  | effects on liver and kidney glutathione levels compared with glutathione monomethyl ester ([3]; fasted mice, as Example 1): about the same |
| CCCCS(=N)(=O)CCC(N)C(=O)O (centres unmarked) [buthionine sulfoximine] |  |  |  | glutathione levels of the liver and kidney after the inhibitor [5]: decreased to a very low value |
| CC(C)COC(=O)CNC(=O)[C@H](CS)NC(=O)CC[C@H](N)C(=O)O [GSH monoisobutyl ester, Isobutyl γ-L-glutamyl-L-cysteinylglycinate] | substantial elevation | substantial elevation | survived and were recovered clearly after 7 days |  |
| N[C@@H](CCC(=O)N[C@@H](CS)C(=O)NCC(=O)O)C(=O)O [GSH, L-γ-glutamyl-L-cysteinyl-glycine, reference compound] | slight elevation | No elevation |  | glutathione level of the kidney [3, 6]: only a slight effect |
| CCCCCCOC(=O)CNC(=O)[C@H](CS)NC(=O)CC[C@H](N)C(=O)O [GSH mono-n-hexyl ester, n-Hexyl γ-L-glutamyl-L-cysteinylglycinate] | substantial elevation | substantial elevation | survived and were recovered clearly after 7 days |  |

— patent publication US4879370A, “Glutathione delivery system” (Cornell Research Foundation, Inc., priority 1985, dated 1989)
